Test results from the supplement of paper PMC10307832.

compound: CC(C)C[C@@H](C(=O)N[C@H](C(=O)OC1CCCC1)c1ccccc1)[C@H](O)C(=O)NO [Tosedostat] + Cc1cc(Nc2cc(N3CCN(C)CC3)nc(Sc3ccc(NC(=O)C4CC4)cc3)n2)n[nH]1 [Tozasertib] (partner 0.1 µM); test: relative viability (nuclei count vs DMSO), 5 days (fraction); higher = more cells survive; settings: first compound 0.02 µM
Method in brief: (§1)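 Cells from lung cancer lines were seeded into 1536-well plates and, one day later, dosed by pin tool. Treatments were either a single drug or a fixed dose of an anchor drug with five library-drug doses (not always all listed) in √10 steps. After 5 days, nuclei were stained in a one-step fixation (final 0.05% Triton X-100, 1% formaldehyde, 1 ug/ml Hoechst) and counted on 4× images, and relative viability is the treated-to-vehicle nuclei ratio, as the median of duplicate plates.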

| Cell Line | relative viability |
| --- | --- |
| HCC-827 | 0.416 |
| NCI-H322M | 0.461 |
| NCI-H1437 | 0.403 |
| PC-14 | 0.586 |
| CAL-12T | 0.366 |
| NCI-H1734 | 0.24 |
| EPLC-272H | 0.7 |
| NCI-H3122 | 0.413 |
| NCI-H1651 | 0.726 |
| NCI-H1993 | 0.631 |
| HCC-15 | 0.571 |
| NCI-H1793 | 0.289 |

same assay, conditions: first compound 0.06325 µM

| Cell Line | relative viability |
| --- | --- |
| HOP-62 | 0.31 |
| LXF-289 | 0.167 |
| BEN | 0.523 |
| HARA | 0.129 |
| HCC-78 | 0.509 |
| NCI-H647 | 0.262 |
| LCLC-97TM1 | 0.203 |
| NCI-H2126 | 0.853 |
| A-427 | 0.196 |
| NCI-H650 | 0.78 |
| RERF-LC-KJ | 0.462 |
| NCI-H1915 | 0.432 |
| NCI-H441 | 0.567 |
| NCI-H1975 | 0.749 |
| NCI-H1395 | 0.748 |
| 201T | 1.02 |
| HCC-827 | 0.412 |
| NCI-H322M | 0.468 |
| NCI-H1437 | 0.395 |
| PC-14 | 0.562 |
| CAL-12T | 0.313 |
| NCI-H1734 | 0.242 |
| EPLC-272H | 0.172 |
| NCI-H3122 | 0.4 |
| NCI-H1651 | 0.645 |
| NCI-H1993 | 0.535 |
| HCC-15 | 0.415 |
| NCI-H1793 | 0.386 |

same assay, conditions: first compound 0.2 µM

| Cell Line | relative viability |
| --- | --- |
| HOP-62 | 0.329 |
| LXF-289 | 0.169 |
| BEN | 0.429 |
| HARA | 0.0782 |
| HCC-78 | 0.426 |
| NCI-H647 | 0.339 |
| LCLC-97TM1 | 0.184 |
| NCI-H2126 | 0.852 |
| A-427 | 0.185 |
| NCI-H650 | 0.684 |
| RERF-LC-KJ | 0.403 |
| NCI-H1915 | 0.492 |
| NCI-H441 | 0.561 |
| NCI-H1975 | 0.916 |
| NCI-H1395 | 0.768 |
| 201T | 1.06 |
| HCC-827 | 0.445 |
| NCI-H322M | 0.434 |
| NCI-H1437 | 0.389 |
| PC-14 | 0.52 |
| CAL-12T | 0.345 |
| NCI-H1734 | 0.278 |
| EPLC-272H | 0.16 |
| NCI-H3122 | 0.393 |
| NCI-H1651 | 0.637 |
| NCI-H1993 | 0.56 |
| HCC-15 | 0.43 |
| NCI-H1793 | 0.295 |

same assay, conditions: first compound 0.6325 µM

| Cell Line | relative viability |
| --- | --- |
| HOP-62 | 0.323 |
| LXF-289 | 0.122 |
| BEN | 0.326 |
| HARA | 0.0748 |
| HCC-78 | 0.461 |
| NCI-H647 | 0.175 |
| LCLC-97TM1 | 0.165 |
| NCI-H2126 | 0.789 |
| A-427 | 0.162 |
| NCI-H650 | 0.602 |
| RERF-LC-KJ | 0.304 |
| NCI-H1915 | 0.352 |
| NCI-H441 | 0.542 |
| NCI-H1975 | 0.575 |
| NCI-H1395 | 0.678 |
| 201T | 1.11 |
| HCC-827 | 0.357 |
| NCI-H322M | 0.419 |
| NCI-H1437 | 0.337 |
| PC-14 | 0.51 |
| CAL-12T | 0.279 |
| NCI-H1734 | 0.229 |
| EPLC-272H | 0.124 |
| NCI-H3122 | 0.388 |
| NCI-H1651 | 0.678 |
| NCI-H1993 | 0.588 |
| HCC-15 | 0.274 |
| NCI-H1793 | 0.31 |

same assay, conditions: first compound 2 µM

| Cell Line | relative viability |
| --- | --- |
| HOP-62 | 0.152 |
| LXF-289 | 0.0708 |
| BEN | 0.252 |
| HARA | 0.07 |
| HCC-78 | 0.406 |
| NCI-H647 | 0.367 |
| LCLC-97TM1 | 0.172 |
| NCI-H2126 | 0.618 |
| A-427 | 0.152 |
| NCI-H650 | 0.471 |
| RERF-LC-KJ | 0.293 |
| NCI-H1915 | 0.289 |
| NCI-H441 | 0.423 |
| NCI-H1975 | 0.471 |
| NCI-H1395 | 0.675 |
| 201T | 0.968 |
| HCC-827 | 0.426 |
| NCI-H322M | 0.341 |
| NCI-H1437 | 0.166 |
| PC-14 | 0.399 |
| CAL-12T | 0.301 |
| NCI-H1734 | 0.208 |
| EPLC-272H | 0.107 |
| NCI-H3122 | 0.306 |
| NCI-H1651 | 0.554 |
| NCI-H1993 | 0.493 |
| HCC-15 | 0.346 |
| NCI-H1793 | 0.289 |

compound: CC(C)C[C@@H](C(=O)N[C@H](C(=O)OC1CCCC1)c1ccccc1)[C@H](O)C(=O)NO [Tosedostat] + COc1cc2c(Oc3ccc(NC(=O)C4(C(=O)Nc5ccc(F)cc5)CC4)cc3F)ccnc2cc1OCCCN1CCOCC1 [Foretinib] (partner 0.25 µM); test: as above; settings: first compound 0.02 µM
Method in brief: as §1

| Cell Line | relative viability |
| --- | --- |
| HOP-62 | 1.27 |
| LXF-289 | 0.981 |
| BEN | 0.713 |
| HARA | 0.941 |
| HCC-78 | 0.518 |
| NCI-H647 | 1.36 |
| LCLC-97TM1 | 0.878 |
| NCI-H2126 | 1.12 |
| A-427 | 0.979 |
| NCI-H650 | 1.05 |
| RERF-LC-KJ | 0.851 |
| NCI-H1915 | 1.13 |
| NCI-H441 | 0.906 |
| NCI-H1975 | 0.986 |
| NCI-H1395 | 0.917 |
| 201T | 1.11 |
| HCC-827 | 0.999 |
| NCI-H322M | 0.995 |
| NCI-H1437 | 1.3 |
| PC-14 | 0.948 |
| CAL-12T | 1.15 |
| NCI-H1734 | 0.93 |
| EPLC-272H | 0.658 |
| NCI-H3122 | 1.01 |
| NCI-H1651 | 0.864 |
| NCI-H1993 | 0.72 |
| HCC-15 | 1.08 |
| NCI-H1793 | 0.559 |

same assay, conditions: first compound 0.06325 µM

| Cell Line | relative viability |
| --- | --- |
| HOP-62 | 1.09 |
| LXF-289 | 1 |
| BEN | 0.825 |
| HARA | 0.914 |
| HCC-78 | 0.59 |
| NCI-H647 | 1.14 |
| LCLC-97TM1 | 0.926 |
| NCI-H2126 | 1.27 |
| A-427 | 1 |
| NCI-H650 | 1.04 |
| RERF-LC-KJ | 0.912 |
| NCI-H1915 | 1.1 |
| NCI-H441 | 1.1 |
| NCI-H1975 | 0.985 |
| NCI-H1395 | 1.05 |
| 201T | 1.24 |
| HCC-827 | 1.09 |
| NCI-H322M | 0.899 |
| NCI-H1437 | 1.32 |
| PC-14 | 0.936 |
| CAL-12T | 1.04 |
| NCI-H1734 | 0.859 |
| EPLC-272H | 0.512 |
| NCI-H3122 | 0.901 |
| NCI-H1651 | 0.736 |
| NCI-H1993 | 0.565 |
| HCC-15 | 0.995 |
| NCI-H1793 | 0.789 |

same assay, conditions: first compound 0.2 µM

| Cell Line | relative viability |
| --- | --- |
| HOP-62 | 1.09 |
| LXF-289 | 1.04 |
| BEN | 0.799 |
| HARA | 0.852 |
| HCC-78 | 0.545 |
| NCI-H647 | 1.18 |
| LCLC-97TM1 | 0.833 |
| NCI-H2126 | 1.25 |
| A-427 | 1.07 |
| NCI-H650 | 0.92 |
| RERF-LC-KJ | 0.77 |
| NCI-H1915 | 1.14 |
| NCI-H441 | 0.992 |
| NCI-H1975 | 1.12 |
| NCI-H1395 | 0.952 |
| 201T | 1.22 |
| HCC-827 | 1.06 |
| NCI-H322M | 0.93 |
| NCI-H1437 | 1.34 |
| PC-14 | 0.987 |
| CAL-12T | 1.22 |
| NCI-H1734 | 0.826 |
| EPLC-272H | 0.58 |
| NCI-H3122 | 1.01 |
| NCI-H1651 | 0.764 |
| NCI-H1993 | 0.793 |
| HCC-15 | 1.02 |
| NCI-H1793 | 0.742 |

same assay, conditions: first compound 0.6325 µM

| Cell Line | relative viability |
| --- | --- |
| HOP-62 | 1.02 |
| LXF-289 | 0.943 |
| BEN | 0.878 |
| HARA | 0.813 |
| HCC-78 | 0.662 |
| NCI-H647 | 1.04 |
| LCLC-97TM1 | 0.771 |
| NCI-H2126 | 1.07 |
| A-427 | 1.12 |
| NCI-H650 | 0.941 |
| RERF-LC-KJ | 0.884 |
| NCI-H1915 | 1.05 |
| NCI-H441 | 0.63 |
| NCI-H1975 | 0.71 |
| NCI-H1395 | 0.918 |
| 201T | 1.32 |
| HCC-827 | 0.946 |
| NCI-H322M | 0.904 |
| NCI-H1437 | 1.25 |
| PC-14 | 0.868 |
| CAL-12T | 1.11 |
| NCI-H1734 | 0.818 |
| EPLC-272H | 0.355 |
| NCI-H3122 | 0.967 |
| NCI-H1651 | 0.906 |
| NCI-H1993 | 0.675 |
| HCC-15 | 0.96 |
| NCI-H1793 | 0.629 |

same assay, conditions: first compound 2 µM

| Cell Line | relative viability |
| --- | --- |
| HOP-62 | 1 |
| LXF-289 | 0.962 |
| BEN | 0.846 |
| HARA | 0.787 |
| HCC-78 | 0.684 |
| NCI-H647 | 1.17 |
| LCLC-97TM1 | 0.773 |
| NCI-H2126 | 1.12 |
| A-427 | 0.877 |
| NCI-H650 | 0.765 |
| RERF-LC-KJ | 0.8 |
| NCI-H1915 | 0.947 |
| NCI-H441 | 0.604 |
| NCI-H1975 | 0.699 |
| NCI-H1395 | 0.871 |
| 201T | 1.17 |
| HCC-827 | 0.895 |
| NCI-H322M | 0.857 |
| NCI-H1437 | 1.25 |
| PC-14 | 0.912 |
| CAL-12T | 1.05 |
| NCI-H1734 | 0.652 |
| EPLC-272H | 0.185 |
| NCI-H3122 | 1.07 |
| NCI-H1651 | 0.688 |
| NCI-H1993 | 0.534 |
| HCC-15 | 0.849 |
| NCI-H1793 | 0.637 |
